In patent US20020137929A1, “1 - (3-heterocyclylphenyl) isothiourea, -isourea, -guanidine and -amidine herbicidal agents” (Intellectual Property Department, BASF Aktiengesellschaft, priority 1998, published 2002):

Legend:
[1] = tested on: TRZAWR (Wheat, Winter, cv Riband); assay: Preemergence herbicidal evaluation; type: in vivo, Triticum aestivum; details: rated 4-5 weeks after treatment
Outline: (§1)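 Seeds were mixed with potting soil and planted on about one inch of soil, then sprayed with test compound in aqueous acetone at about 0.0156 to 0.500 kg per hectare. Plants grew under standard greenhouse care and were visually rated 0-9 against untreated controls 4-5 weeks post-treatment.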

[2] = tested on: SAGPY (Arrowhead (Pygmaea)); assay: Preemergence weed control under flooded paddy conditions; type: in vivo, Sagittaria pygmaea; details: rated 3-4 weeks after treatment
Outline: (§2)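 Greenhouse paddy assay. Acetone/water (50/50 v/v) solutions dosed into flood water, equivalent to about 0.0313 to 0.500 kg/ha active ingredient, over seeds planted 0.5 cm deep in silt loam. Score: 0-9 visual, based on stand, vigor, malformation, size and chlorosis, 3 to 4 weeks after treatment.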

ABUTH (Velvetleaf) = assay: Preemergence herbicidal evaluation; type: in vivo, Abutilon theophrasti; details: rated 4-5 weeks after treatment
Outline: as §1

MOOVA (Monochoria) = assay: Preemergence weed control under flooded paddy conditions; type: in vivo, Monochoria vaginalis; details: rated 3-4 weeks after treatment
Outline: as §2

AMBEL (Ragweed, Common) = assay: Postemergence herbicidal evaluation; type: in vivo, Ambrosia artemisifolia; details: postemergence
Outline: (§3)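 Young plants, roughly two weeks from seeding, receive the active ingredient as a sprayed dispersion (acetone/water 50/50, 0.5% TWEEN 20) at 40 psi. Doses span about 0.0156 to 0.500 kg/ha. A visual score from 0 to 9 compares treated with control plants four to five weeks on.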

ZEAMX (Corn, Field) = assay: Preemergence herbicidal evaluation; type: in vivo, Zea mays; details: rated 4-5 weeks after treatment
Outline: as §1

[3] = tested on: IPOHE (Morningglory, Ivyleaf); assay: Preemergence herbicidal evaluation; type: in vivo, Ipomoea hederacea; details: rated 4-5 weeks after treatment
Outline: as §1

CASOB (Sicklepod) [4] = assay: Postemergence herbicidal evaluation; type: in vivo, Cassia obtusifolia; details: postemergence
Outline: as §3

ECHCG (Barnyardgrass) = assay: Preemergence herbicidal evaluation; type: in vivo, Echinochloa crus-galli; details: rated 4-5 weeks after treatment
Outline: as §1

CASOB (Sicklepod) [5] = assay: Preemergence herbicidal evaluation; type: in vivo, Cassia obtusifolia; details: rated 4-5 weeks after treatment
Outline: as §1

GALAP (Galium) = assay: Postemergence herbicidal evaluation; type: in vivo, Galium aparine; details: postemergence
Outline: as §3

[6] = tested on: IPOHE (Morningglory, Ivyleaf); assay: Postemergence herbicidal evaluation; type: in vivo, Ipomoea hederacea; details: postemergence
Outline: as §3

[7] = tested on: GLXMAW (Soybean, Williams); assay: Preemergence herbicidal evaluation; type: in vivo, Glycine max, (L.) Merr. cv Williams; details: rated 4-5 weeks after treatment
Outline: as §1

CCCCOC(=O)CN1C(=O)CSC1=Nc1cc(-n2c(=O)cc(C(F)(F)F)n(C)c2=O)c(F)cc1Cl [Compound 111]
Preemergence herbicidal rating TRZAWR ([1]; rate 0.0156 kg/ha): 0.0
Preemergence herbicidal rating TRZAWR ([1]; rate 0.0313 kg/ha): 0.0
Preemergence herbicidal rating TRZAWR ([1]; rate 0.0625 kg/ha): 0.0
Preemergence herbicidal rating TRZAWR ([1]; rate 0.1250 kg/ha): 1.0
Preemergence herbicidal rating TRZAWR ([1]; rate 0.2500 kg/ha): 4.0
SAGPY herbicidal effect rating ([2]; 0.0313 kg/ha): 3.0
SAGPY herbicidal effect rating ([2]; 0.0625 kg/ha): 4.0
SAGPY herbicidal effect rating ([2]; 0.1250 kg/ha): 5.0
SAGPY herbicidal effect rating ([2]; 0.2500 kg/ha): 6.0
Preemergence herbicidal rating ABUTH (ABUTH (Velvetleaf); rate 0.0156 kg/ha): 1.0
Preemergence herbicidal rating ABUTH (ABUTH (Velvetleaf); rate 0.0313 kg/ha): 0.0
Preemergence herbicidal rating ABUTH (ABUTH (Velvetleaf); rate 0.0625 kg/ha): 2.0
Preemergence herbicidal rating ABUTH (ABUTH (Velvetleaf); rate 0.1250 kg/ha): 9.0
Preemergence herbicidal rating ABUTH (ABUTH (Velvetleaf); rate 0.2500 kg/ha): 9.0
MOOVA herbicidal effect rating (MOOVA (Monochoria); 0.0313 kg/ha): 3.0
MOOVA herbicidal effect rating (MOOVA (Monochoria); 0.0625 kg/ha): 4.0
MOOVA herbicidal effect rating (MOOVA (Monochoria); 0.1250 kg/ha): 4.0
MOOVA herbicidal effect rating (MOOVA (Monochoria); 0.2500 kg/ha): 4.0
herbicidal rating AMBEL (AMBEL (Ragweed, Common); rate 0.0158 kg/ha): 4.0
herbicidal rating AMBEL (AMBEL (Ragweed, Common); rate 0.0315 kg/ha): 6.0
herbicidal rating AMBEL (AMBEL (Ragweed, Common); rate 0.0630 kg/ha): 9.0
Preemergence herbicidal rating ZEAMX (ZEAMX (Corn, Field); rate 0.0156 kg/ha): 0.0
Preemergence herbicidal rating ZEAMX (ZEAMX (Corn, Field); rate 0.0313 kg/ha): 0.0
Preemergence herbicidal rating ZEAMX (ZEAMX (Corn, Field); rate 0.0625 kg/ha): 0.0
Preemergence herbicidal rating ZEAMX (ZEAMX (Corn, Field); rate 0.1250 kg/ha): 4.0
Preemergence herbicidal rating ZEAMX (ZEAMX (Corn, Field); rate 0.2500 kg/ha): 4.0
Preemergence herbicidal rating IPOHE ([3]; rate 0.0156 kg/ha): 0.0
Preemergence herbicidal rating IPOHE ([3]; rate 0.0313 kg/ha): 0.0
Preemergence herbicidal rating IPOHE ([3]; rate 0.0625 kg/ha): 0.0
Preemergence herbicidal rating IPOHE ([3]; rate 0.1250 kg/ha): 9.0
Preemergence herbicidal rating IPOHE ([3]; rate 0.2500 kg/ha): 7.0
herbicidal rating CASOB (CASOB (Sicklepod) [4]; rate 0.0158 kg/ha): 0.0
herbicidal rating CASOB (CASOB (Sicklepod) [4]; rate 0.0315 kg/ha): 1.0
herbicidal rating CASOB (CASOB (Sicklepod) [4]; rate 0.0630 kg/ha): 1.0
Preemergence herbicidal rating ECHCG (ECHCG (Barnyardgrass); rate 0.0156 kg/ha): 0.0
Preemergence herbicidal rating ECHCG (ECHCG (Barnyardgrass); rate 0.0313 kg/ha): 0.0
Preemergence herbicidal rating ECHCG (ECHCG (Barnyardgrass); rate 0.0625 kg/ha): 0.0
Preemergence herbicidal rating ECHCG (ECHCG (Barnyardgrass); rate 0.1250 kg/ha): 0.0
Preemergence herbicidal rating ECHCG (ECHCG (Barnyardgrass); rate 0.2500 kg/ha): 4.0
Preemergence herbicidal rating CASOB (CASOB (Sicklepod) [5]; rate 0.0156 kg/ha): 0.0
Preemergence herbicidal rating CASOB (CASOB (Sicklepod) [5]; rate 0.0313 kg/ha): 0.0
Preemergence herbicidal rating CASOB (CASOB (Sicklepod) [5]; rate 0.0625 kg/ha): 1.0
Preemergence herbicidal rating CASOB (CASOB (Sicklepod) [5]; rate 0.1250 kg/ha): 1.0
Preemergence herbicidal rating CASOB (CASOB (Sicklepod) [5]; rate 0.2500 kg/ha): 9.0
herbicidal rating GALAP (GALAP (Galium); rate 0.0158 kg/ha): 0.0
herbicidal rating GALAP (GALAP (Galium); rate 0.0315 kg/ha): 0.0
herbicidal rating GALAP (GALAP (Galium); rate 0.0630 kg/ha): 1.0
herbicidal rating IPOHE ([6]; rate 0.0158 kg/ha): 4.0
herbicidal rating IPOHE ([6]; rate 0.0315 kg/ha): 9.0
herbicidal rating IPOHE ([6]; rate 0.0630 kg/ha): 9.0
Preemergence herbicidal rating GLXMAW ([7]; rate 0.0156 kg/ha): 1.0
Preemergence herbicidal rating GLXMAW ([7]; rate 0.0313 kg/ha): 1.0
Preemergence herbicidal rating GLXMAW ([7]; rate 0.0625 kg/ha): 1.0
Preemergence herbicidal rating GLXMAW ([7]; rate 0.1250 kg/ha): 3.0
Preemergence herbicidal rating GLXMAW ([7]; rate 0.2500 kg/ha): 4.0
